Experiments:
[1] = system: KMS34 high-risk MM cell line; assay: MTT cell proliferation inhibition, KMS34; assay type: cell-based; details: Homo sapiens, KMS-34, KMS34, t(4;14), del17, 48 hours, read-out: IC50, cell proliferation inhibitory activity, KMS34
Protocol: (§1) For examination of cell proliferation inhibitory activity, high-risk MM cell lines (KMM1, KMS11, KMS21, KMS26, KMS28, KMS34) established by Takemi Otsuki et al., of Kawasaki Medical School were used (Otsuki, T. et al., Int. J. Oncol., 15: 1205-1212, 1999). […] The genetic abnormality of these cell types, and in particular deletion of p53 gene were examined by FISH method (Chang, H. Blood, 105: 358-360, 2005) (WO2010/061862A1). […] These high-risk MM cell lines were treated with drugs such as TC11, HOEtO-TC11, PEG11(E)-TC11, and PEG11(O)-TC11 at arbitrary concentrations. […] Specifically, each high-risk MM cell line was prepared at a concentration of 2×10^5 cells/ml, and then seeded in an amount of 50 μl (1×10^4 cells) per well. After 24 hours, drugs such as TC11, HOEtO-TC11, PEG11(E)-TC11, and PEG11(O)-TC11 having arbitrary concentrations were added. At 48 hours after addition of each drug, 10 μL each of an MTT labeling reagent in Cell Proliferation Kit I [MTT] (Roche Diagnostics, Basel, Switzerland) was added. After 4 hours of treatment at 37° C., 100 μL each of solution buffer was added and then left to stand overnight at 37° C. Absorbance was measured using a microplate reader Infinit™ M1000 (Tecan, Maennedorf, Switzerland) at a wavelength of 570 nm. Cell viability was found from an absorbance ratio using absorbance at 0 μM designated as 100%. IC50 was calculated from a semi-logarithmic chart using Microsoft (registered trademark) Excel.

[2] = system: KMS11 high-risk MM cell line; assay: MTT cell proliferation inhibition, KMS11; assay type: cell-based; details: Homo sapiens, KMS-11, KMS11, t(4;14), del17, 48 hours, read-out: IC50, cell proliferation inhibitory activity, KMS11
Protocol: as §1

[3] = system: KMS28 high-risk MM cell line; assay: MTT cell proliferation inhibition, KMS28; assay type: cell-based; details: Homo sapiens, KMS28, t(4;14), del17, 48 hours, read-out: IC50, cell proliferation inhibitory activity, KMS28
Protocol: as §1

high-risk MM cell lines = assay: MTT cell proliferation inhibition, panel of high-risk MM cell lines; assay type: cell-based; details: Homo sapiens, range over the cell lines of Table 2, 48 hours
Protocol: as §1

[4] = system: KMS26 high-risk MM cell line; assay: MTT cell proliferation inhibition, KMS26; assay type: cell-based; details: Homo sapiens, KMS-26, KMS26, t(4;14), t(4;16), del17, 48 hours, read-out: IC50, cell proliferation inhibitory activity, KMS26
Protocol: as §1

[5] = Water solubility of drugs (saturation concentration by HPLC); assay type: physicochemical; details: 100 mM Tris-HCl (pH 7.5); for Water solubility: 25° C., saturation concentration; for Water solubility, relative ratio (numerals in parentheses): relative to TC11
[6] = system: KMM1 high-risk MM cell line; assay: MTT cell proliferation inhibition, KMM1; assay type: cell-based; details: Homo sapiens, KMM-1, KMM1, t(6;14), t(8;14), del17, 48 hours, read-out: IC50, cell proliferation inhibitory activity, KMM1
Protocol: as §1

cereblon (CRBN) = target: T1, cereblon (CRBN) (Homo sapiens, UniProt Q96SW2); assay: Surface plasmon resonance biosensor (BIACORE 3000) interaction with cereblon; assay type: binding; details: measured at 1 μM, 2 μM and 10 μM, FIG. 9C
T1 construct: recombinant full-length CRBN prepared by the above method was reacted with the beads; T7 tag (N); FLAG tag (C); made in house; host or cells: 293T cells (pcDNA3.3 vector), RIPA extract purified on Ni Sepharose excel

[7] = Dissolution in physiological saline for dosing; assay type: physicochemical; details: physiological saline (NaCl 0.9 w/v %) alone, dosing concentration
MUM24 MM cell line = assay: MTT cell proliferation inhibition, MUM24; assay type: cell-based; details: Homo sapiens, MUM24, t(4;14), del13, del17, 48 hours, read-out: IC50, cell proliferation inhibitory activity, MUM24
KMS11 xenograft = assay: Antitumor effect on KMS11-bearing mice (Example 16); assay type: in vivo, ICR/SCID mice; details: for Body weight compared to the control group: at the doses suppressing tumor growth; for Tumor volume compared to the control: i.p., equimolar to TC11 60 mg/kgBW
Protocol: TC11 and its derivatives were examined for in vivo antitumor effects using 6 KMS11 xenograft model mice. KMS11 was administered to 6-week-old ICR/SCID mice at 3×10^7 cells/mouse via hypodermic injection. Tumor volume was measured over time. The day on which each tumor volume exceeded 50 mm^3 was designated as Day 1 and observation was performed for 14 days. The single dosage of TC11 was 60 mg/kgBW, the intraperitoneal dosages of PEG11(E)-TC11 and PEG11(O)-TC11 were 177.3 mg/kgBW and 163.8 mg/kgBW, respectively, which were equimolar amounts of that of TC11. […] The final composition of the solvent was 10% DMSO+1% Tween 80/physiological saline. […] Drug administration was performed for two out of every 3 days (Day 1, 2, 4, 5, 7, 8, 10, 11, […], 13). Mice were sacrificed on Day 14, and then tumor weights were measured and in vivo findings were confirmed.

[8] = system: KMS21 high-risk MM cell line; assay: MTT cell proliferation inhibition, KMS21; assay type: cell-based; details: Homo sapiens, KMS21, t(11;14), 48 hours, read-out: IC50, cell proliferation inhibitory activity, KMS21
Protocol: as §1
Moreover, the concentration dependency of the in vitro cell proliferation inhibitory activity of TC11, and its derivatives, PEG11(E)-TC11 and HOEtO-TC11 against high-risk MM cell line (KMS21) was examined in detail (FIG. 4). […] Such a phenomenon was similarly observed for other high-risk MM cell lines, KMS11, KMS34, and MUM24.

[9] = 6 KMS11 xenograft model mice, i.p. 177.3 mg/kgBW

T1 sequence (Q96SW2 whole entry): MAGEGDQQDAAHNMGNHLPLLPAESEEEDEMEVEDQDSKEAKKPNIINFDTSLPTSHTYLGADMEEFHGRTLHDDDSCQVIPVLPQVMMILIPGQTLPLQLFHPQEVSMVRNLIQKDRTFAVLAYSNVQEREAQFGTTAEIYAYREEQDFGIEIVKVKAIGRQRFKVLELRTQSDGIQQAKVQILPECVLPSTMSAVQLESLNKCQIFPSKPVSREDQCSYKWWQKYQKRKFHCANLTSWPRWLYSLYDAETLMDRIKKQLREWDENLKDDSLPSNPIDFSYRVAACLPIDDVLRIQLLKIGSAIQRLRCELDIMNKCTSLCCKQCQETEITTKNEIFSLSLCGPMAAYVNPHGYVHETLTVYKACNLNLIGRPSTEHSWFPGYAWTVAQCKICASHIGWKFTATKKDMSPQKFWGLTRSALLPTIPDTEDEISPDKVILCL

Row | Water solubility [5] [g/100 ml] | Water solubility, relative ratio (numerals in parentheses) [5] | Binding to CRBN (SPR sensorgram) (cereblon (CRBN)) | Dissolution in physiological saline [7] | Compound | IC50 [1] [µM] | IC50 [2] [µM] | IC50 [3] [µM] | IC50 (high-risk MM cell lines) [µM] | IC50 [4] [µM] | IC50 [6] [µM] | IC50 (MUM24 MM cell line) [µM] | Mice from which the primary lesion had completely disappeared (KMS11 xenograft; [9]) [mouse] | Mice having tumor sizes almost the same as at initiation of administration (KMS11 xenograft; [9]) [mice] | Body weight compared to the control group (KMS11 xenograft; KMS11 xenograft mice) | Tumor volume compared to TC11 (KMS11 xenograft; KMS11 xenograft mice, i.p. 177.3 mg/kgBW, 14 days) | Tumor volume compared to the control (KMS11 xenograft; KMS11 xenograft mice, 14 days) | IC50 [8] [µM]
1 | 8.89 | 4,447 × | never bind to CRBN | completely dissolved | COCCOCCOCCOCCOCCOCCOCCOCCOCCOCCOCCOCCC(=O)OCCOc1cc2c(cc1N)C(=O)N(c1c(C(C)C)cccc1C(C)C)C2=O [PEG11(E)-TC11] | 2.6 | 1.4 | 6.8 | 1 to 7 | 2.7 | 6.3 | 1.8 | 1 | 3 | no decrease in body weight | significant decrease in tumor volume compared to TC11 | significant decreases in tumor volume | 1.6
2 | 1.47 | 735 × | never bind to CRBN | completely dissolved | COCCOCCOCCOCCOCCOCCOCCOCCOCCOCCOCCOCCOc1cc2c(cc1N)C(=O)N(c1c(C(C)C)cccc1C(C)C)C2=O [PEG11(O)-TC11] | 10.5 | 4.8 | 25.8 | 5 to 60 | 16.4 | 59.3 | 9.2 |  |  | no decrease in body weight |  | significant decreases in tumor volume | 22.7
3 | 0.002 | 1 × | never bind to CRBN | hardly dissolved | CC(C)c1cccc(C(C)C)c1N1C(=O)c2ccc(N)cc2C1=O [TC11, 2-(2,6-di-isopropylphenyl)-5-amino-1H-isoindole-1,3-dione, reference compound] | 4 | 2 | 7.1 | 2 to 8 | 3 | 5.1 | 3 |  |  | no decrease in body weight |  | significant decreases in tumor volume | 2.8
